From US6376497B1, “Antifungal azole derivatives having a fluorinated vinyl group and process for preparing same” (Korea Research Institute of Chemical Technology, priority 1999, dated 2002)
Values after ≈ are worked out from the molar mass of the structure shown.

Key:
Assay in all cases: In vitro antifungal activity, microbroth dilution MIC
Assay type in all cases: cell-based
[1] = tested on: Candida parapsitosis A. 7330; settings: 4 to 48 hours; for Minimal inhibitory concentration(MIC), C. parapsitosis A. 7330: RPMI-1640, 35° C., no growth observed
Procedure, shortened: (§1)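 Broth microdilution adapted from NCCLS M27, in RPMI-1640 with 0.165 M MOPS, pH 7.0. Yeast or mould inoculum at 2×10^3 CFU/ml was mixed 1:1 with DMSO-derived compound solutions (200 to 0.10 μg/ml before mixing) and incubated at 35 °C for 4 to 48 h. MIC was the concentration showing no growth.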

[2] = tested on: Candida tropicalis A. 13803; settings: 4 to 48 hours; for Minimal inhibitory concentration(MIC), C. tropicalis A. 13803: RPMI-1640, 35° C., no growth observed
Procedure, shortened: as §1

[3] = tested on: Candida albicans IFO. 1385; settings: 4 to 48 hours; for Minimal inhibitory concentration(MIC), C. albicans IFO. 1385: RPMI-1640, 35° C., no growth observed
Procedure, shortened: as §1

[4] = tested on: Torulopsis glabrata B. 16205; settings: 4 to 48 hours; for Minimal inhibitory concentration(MIC), T. glabrata B. 16205: RPMI-1640, 35° C., no growth observed
Procedure, shortened: as §1

[5] = tested on: Candida albicans A. 10231; settings: 4 to 48 hours; for Minimal inhibitory concentration(MIC), C. albicans A. 10231: RPMI-1640, 35° C., no growth observed
Procedure, shortened: as §1

[6] = tested on: Trichophyton mentagrophytes B. 32663; settings: for Minimal inhibitory concentration(MIC), T. mentagrophytes B. 32663: RPMI-1640, 35° C., no growth observed
Procedure, shortened: as §1

[7] = tested on: Cryptococcus neoformans B. 42419; settings: 4 to 48 hours; for Minimal inhibitory concentration(MIC), Cry. neoformans B. 42419: RPMI-1640, 35° C., no growth observed
Procedure, shortened: as §1

Candida krusei K. 11655 = settings: 4 to 48 hours; for Minimal inhibitory concentration(MIC), C. krusei K. 11655: RPMI-1640, 35° C., no growth observed
Procedure, shortened: as §1

[8] = tested on: Candida pseudotropicalis K. 11658; settings: 4 to 48 hours; for Minimal inhibitory concentration(MIC), C. pseudotropicalis K. 11658: RPMI-1640, 35° C., no growth observed
Procedure, shortened: as §1

[9] = tested on: Cryptococcus neoformans IFM. 40092; settings: for Minimal inhibitory concentration(MIC), Cry. neoformans IFM. 40092: RPMI-1640, 35° C., no growth observed
Procedure, shortened: as §1

[10] = tested on: Aspergillus furnigatus B. 19119; settings: for Minimal inhibitory concentration(MIC), A furnigatus B. 19119: RPMI-1640, 35° C., no growth observed
Procedure, shortened: as §1

[11] = tested on: Cryptococcus neoformans A. 34144; settings: for Minimal inhibitory concentration(MIC), Cry. neoformans A. 34144: RPMI-1640, 35° C., no growth observed
Procedure, shortened: as §1

Candida albicans C1-2 = settings: 4 to 48 hours; for Minimal inhibitory concentration(MIC), C. albicans C1-2: RPMI-1640, 35° C., no growth observed
Procedure, shortened: as §1

[12] = tested on: Aspergillus niger A. 16404; settings: for Minimal inhibitory concentration(MIC), A. niger A. 16404: RPMI-1640, 35° C., no growth observed
Procedure, shortened: as §1

[13] = tested on: Trichophyton mentagrophytes A. 9129; settings: for Minimal inhibitory concentration(MIC), T. mentagrophytes A. 9129: RPMI-1640, 35° C., no growth observed
Procedure, shortened: as §1

| SMILES | Minimal inhibitory concentration(MIC), C. parapsitosis A. 7330 [1] [µg/mL] | Minimal inhibitory concentration(MIC), C. tropicalis A. 13803 [2] [µg/mL] | Minimal inhibitory concentration(MIC), C. albicans IFO. 1385 [3] [µg/mL] | Minimal inhibitory concentration(MIC), T. glabrata B. 16205 [4] [µg/mL] | Minimal inhibitory concentration(MIC), C. albicans A. 10231 [5] [µg/mL] | Minimal inhibitory concentration(MIC), T. mentagrophytes B. 32663 [6] | Minimal inhibitory concentration(MIC), Cry. neoformans B. 42419 [7] [µg/mL] | Minimal inhibitory concentration(MIC), C. krusei K. 11655 (Candida krusei K. 11655) [µg/mL] | Minimal inhibitory concentration(MIC), C. pseudotropicalis K. 11658 [8] [µg/mL] | Minimal inhibitory concentration(MIC), Cry. neoformans IFM. 40092 [9] | Minimal inhibitory concentration(MIC), A furnigatus B. 19119 [10] [µg/mL] | Minimal inhibitory concentration(MIC), Cry. neoformans A. 34144 [11] [µg/mL] | Minimal inhibitory concentration(MIC), C. albicans C1-2 (Candida albicans C1-2) [µg/mL] | Minimal inhibitory concentration(MIC), A. niger A. 16404 [12] [µg/mL] | Minimal inhibitory concentration(MIC), T. mentagrophytes A. 9129 [13] [µg/mL] | also measured |
| --- | --- | --- | --- | --- | --- | --- | --- | --- | --- | --- | --- | --- | --- | --- | --- | --- |
| FC(=C(c1ccc(F)cc1)C(F)(F)F)N1CCN(c2ccc(OCC3COC(Cn4ccnc4)(c4ccc(F)cc4F)O3)cc2)CC1 (mixture of isomers) [Ex. 148] | 0.78 | >100 | 0.39 | 50.0 | >100 | ≦0.10 μg/ml | 0.78 | 0.39 | 0.78 | ≦0.10 μg/ml | 6.25 | 0.78 | >100 | 100 | 3.13 | – |
| FC(=C(c1ccc(Cl)cc1)C(F)(F)F)N1CCN(c2ccc(OCC3COC(Cn4ccnc4)(c4ccc(F)cc4F)O3)cc2)CC1 (mixture of isomers) [Ex. 149] | 0.78 | >100 | 0.39 | 50.0 | >100 | ≦0.10 μg/ml | 0.39 | 0.39 | 0.39 | ≦0.10 μg/ml | 6.25 | 0.78 | >100 | 100 | 3.13 | – |
| FC(=C(c1cc(Cl)cc(Cl)c1)C(F)(F)F)N1CCN(c2ccc(OCC3COC(Cn4ccnc4)(c4ccc(F)cc4F)O3)cc2)CC1 (mixture of isomers) [Ex. 150] | 1.56 | >100 | 0.39 | 50.0 | >100 | ≦0.10 μg/ml | 0.39 | 0.78 | 0.78 | ≦0.10 μg/ml | 12.5 | 1.56 | >100 | 100 | 3.13 | – |
| FC(=Cc1ccccc1)OC[C@H]1CO[C@](Cn2ccnc2)(c2ccc(Cl)cc2Cl)O1 (relative stereo) [Example 1, (E&Z) 1-[cis-2-(2,4-dichlorophenyl)-2-(1H-1-imidazolylmethyl)-1,3-dioxolan-4-ylmethoxy]-1-fluoro-2-phenyl-1-ethene] | – | – | – | – | – | – | – | – | – | – | – | – | – | – | – | Minimal inhibitory concentration (MIC) ([1]; C. parapsitosis A. 7330, RPMI-1640, 35° C.): 6.25 µg/mL (≈ 13.9 µM); Minimal inhibitory concentration (MIC) ([2]; C. tropicalis A. 13803, RPMI-1640, 35° C.): 50.0 µg/mL (≈ 111 µM); Minimal inhibitory concentration (MIC) ([3]; C. albicans IFO. 1385, RPMI-1640, 35° C.): 3.13 µg/mL (≈ 6.97 µM); Minimal inhibitory concentration (MIC) ([4]; T. glabrata B. 16205, RPMI-1640, 35° C.): 25.0 µg/mL (≈ 55.6 µM); Minimal inhibitory concentration (MIC) ([5]; C. albicans A. 10231, RPMI-1640, 35° C.): 25.0 µg/mL (≈ 55.6 µM); Minimal inhibitory concentration (MIC) ([6]; T. mentagrophytes B. 32663, RPMI-1640, 35° C., 4 to 48 hours): 0.20 µg/mL (≈ 0.445 µM); Minimal inhibitory concentration (MIC) ([7]; Cry. neoformans B. 42419, RPMI-1640, 35° C.): 0.39 µg/mL (≈ 0.868 µM); Minimal inhibitory concentration (MIC) (Candida krusei K. 11655; C. krusei K. 11655, RPMI-1640, 35° C.): 6.25 µg/mL (≈ 13.9 µM); Minimal inhibitory concentration (MIC) ([8]; C. pseudotropicalis K. 11658, RPMI-1640, 35° C.): 6.25 µg/mL (≈ 13.9 µM); Minimal inhibitory concentration (MIC) ([9]; Cry. neoformans IFM. 40092, RPMI-1640, 35° C., 4 to 48 hours): 0.20 µg/mL (≈ 0.445 µM); Minimal inhibitory concentration (MIC) ([10]; A furnigatus B. 19119, RPMI-1640, 35° C., 4 to 48 hours): 1.56 µg/mL (≈ 3.47 µM); Minimal inhibitory concentration (MIC) ([11]; Cry. neoformans A. 34144, RPMI-1640, 35° C., 4 to 48 hours): 0.39 µg/mL (≈ 0.868 µM); Minimal inhibitory concentration (MIC) (Candida albicans C1-2; C. albicans C1-2, RPMI-1640, 35° C.): 25.0 µg/mL (≈ 55.6 µM); Minimal inhibitory concentration (MIC) ([12]; A. niger A. 16404, RPMI-1640, 35° C., 4 to 48 hours): 1.56 µg/mL (≈ 3.47 µM); Minimal inhibitory concentration (MIC) ([13]; T. mentagrophytes A. 9129, RPMI-1640, 35° C., 4 to 48 hours): ≦0.10 μg/ml |
